Measured values reported in US10059741B2 (priority 2015, dated 2018).
Where “and” joins values, the source holds several entries; their conditions need not be identical. Equal entries are not always repeated. Where two headings read alike, the source gives them in different places. Bridge positions count the residues as written; N and C are the ends. Square brackets hold non-standard residues; d marks the D form. Peptide text beside a SMILES is read from it. R8 = C=CCCCCCC[C@@](C)(N)C(=O)O; S5 = C=CCCC[C@](C)(N)C(=O)O; Nle = CCCC[C@H](N)C(=O)O

What was measured:
[1] = system: Influenza A H1N1 Influenza A/California/7/2009; experiment: microbe, parasite or virus in culture; type: cell-based, influenza A virus; settings: Influenza A virus, H1N1, MDCK
H3N2 Perth/16/2009 [2] = experiment: microbe, parasite or virus in culture; type: cell-based, influenza A virus
[3] = system: influenza virus, various viral strains; experiment: Influenza antiviral evaluation assay (CPE, neutral red dye uptake) in MDCK cells against various viral strains (Tables 8, 9); type: cell-based
H1N1 A/Brisbane/59/2007 = experiment: Cytopathic effect (CPE) inhibition in MDCK cells, neutral red; type: cell-based, influenza A virus
in vitro = settings: dog
[4] = system: Madin Darby canine kidney (MDCK) cells
H1N1 California/07/2009 [5] = experiment: microbe, parasite or virus in culture; type: cell-based, influenza A virus
[6] = system: influenza virus, various viral strains; experiment: organism not typed; type: cell-based
H1N1 California/07/2009 [7] = experiment: microbe, parasite or virus in culture; type: cell-based, influenza A virus; settings: for EC50: read-out: EC50 (μM) H1N1 California/07/2009
[8] = system: Influenza B Brisbane/60/2008; experiment: Cytopathic effect (CPE) inhibition in MDCK cells, neutral red; type: cell-based; settings: Influenza B virus, MDCK; Influenza B Brisbane/60/2008; Neutral Red; read-out: EC50
[9] = system: Influenza B/Brisbane/60/2008; experiment: microbe, parasite or virus in culture; type: cell-based; settings: Influenza B virus, MDCK; Influenza B Influenza B/Brisbane/60/2008; CellTiter-Glo
[10] = system: H5N1 A/Hong Kong/213/2003; experiment: microbe, parasite or virus in culture; type: cell-based, influenza A virus
H3N2 Perth/16/2009 [11] = experiment: microbe, parasite or virus in culture; type: cell-based, influenza A virus; remark: listed apart in the source
[12] = system: Influenza A H1N1 Influenza A/Texas/4/2009; experiment: microbe, parasite or virus in culture; type: cell-based, influenza A virus; settings: Influenza A virus, H1N1, MDCK
H5N1 A/Duck/MN/1525/81 = experiment: microbe, parasite or virus in culture; type: cell-based, influenza A virus; settings: Influenza A H5N1 Duck/MN/1525/81, Neutral Red
[13] = system: Influenza B Florida/04/2006; experiment: Cytopathic effect (CPE) inhibition in MDCK cells, neutral red; type: cell-based; settings: Influenza B virus, MDCK; Influenza B Florida/04/2006; Neutral Red; read-out: EC50
[14] = system: Influenza A H3N2 Influenza A/Brisbane/10/2007; experiment: microbe, parasite or virus in culture; type: cell-based, influenza A virus; settings: Influenza A virus, H3N2, MDCK
H7N9 A/Anhui/1/2013 = experiment: microbe, parasite or virus in culture; type: cell-based, influenza A virus
[15] = system: influenza virus, various viral strains; type: cell-based; settings: VYR/Neutral Red
[16] = system: H1N1 A/Solomon Island/03/2006; type: cell-based, influenza A virus; settings: Influenza A H1N1 A/Solomon Is./3/2006-M; Drug Assay Neutral Red; read-out: EC50
[17] = Influenza A virus, H3N2, MDCK, read-out: EC50 (μM) H3N2 Perth/16/2009
[18] = MDCK, Influenza A H5N1 Duck/MN/1525/81, Visual

NC(=O)c1ncn([C@@H]2O[C@H](CO)[C@@H](O)[C@H]2O)n1 [Ribavirin, reference compound]
EC50 [1]: 6.53 µM | EC90 [1]: 16.2 µM | EC50 (H3N2 Perth/16/2009 [2]; [17]): 1.5 to 10 µM | EC50 [3]: 9.3 µM and 9.6 µM and 8.9 µM | EC50 ([3]; MDCK): 9.8 µM | EC50 (H1N1 A/Brisbane/59/2007): 5.6 µM | EC50 (H1N1 A/Brisbane/59/2007; Influenza A virus, H1N1, MDCK): 7.2 µM | CC50 (in vitro; CC50 (μM) H1N1 California/07/2009): > 100 µM | CC50 (in vitro; CC50 (μM) H3N2 Perth/16/2009): > 100 µM | CC50 ([4]; MDCK cells, run with Influenza A H5N1 Duck/MN/1525/81, Neutral Red): > 320 µM | CC50 ([4]; MDCK cells, run with Influenza A H5N1 Duck/MN/1525/81, Visual): > 320 µM | CC50 ([4]; MDCK cells, run with Influenza A H5N1 Hong Kong/213/2003, Neutral Red): > 1000 µM | CC50 ([4]; MDCK cells, run with Influenza A H5N1 Hong Kong/213/2003, Visual): > 1000 µM | CC50 ([4]; run with Influenza A H5N1 A/Hong Kong/213/2003, Neutral Red): > 1000 µM | CC50 ([4]; run with Influenza A H5N1 A/Hong Kong/213/2003, Visual): > 1000 µM | CC50 ([4]; run with Influenza A H7N9 A/Anhui/1/2013, Neutral Red): > 1000 µM | CC50 ([4]; run with Influenza A H7N9 A/Anhui/1/2013, Visual): > 1000 µM | EC50 (H1N1 California/07/2009 [5]): 8.5 µM and 6.8 µM and 10 µM | EC50 (H1N1 California/07/2009 [5]; Influenza A virus, H1N1, MDCK, read-out: EC50 (μM) H1N1 California/07/2009): 10 to 25 µM | EC90 [6]: 4.1 µM | EC90 ([6]; MDCK): 5.2 µM | EC50 ([6]; MDCK, Influenza A H1N1 A/Solomon Is./3/2006-M, Drug Assay Visual): 10 µM | EC50 ([6]; MDCK, Influenza A H1N1 California/04/2009-M, Visual): 10 µM | EC50 ([6]; MDCK, Influenza A H1N1 Solomon Is./3/2006-M, Visual): 10 µM | EC50 ([6]; MDCK, Influenza A H3N2 Victoria/3/75-M, Visual): 10 µM | EC50 ([6]; MDCK, Influenza A H5N1 A/Hong Kong/213/2003, Drug Assay Visual): 4.2 µM | EC50 [6, 18]: 10 µM | EC90 [6, 18]: 9 µM | EC50 ([6]; MDCK, Influenza A H5N1 Hong Kong/213/2003, Visual): 43 µM | EC50 ([6]; MDCK, Influenza A H7N9 A/Anhui/1/2013, Drug Assay Visual): 3.2 µM | EC50 ([6]; MDCK, Influenza B Sichuan/379/99-M, Visual): 10 µM | EC90 (H1N1 California/07/2009 [7]; Influenza A virus, H1N1, MDCK): 5.5 µM | EC50 (H1N1 California/07/2009 [7]; Influenza A virus, H1N1, MDCK): 1.5 to 10 µM | EC50 [8]: 5.6 µM | EC50 [9]: 66.2 µM | EC90 [9]: > 100 µM | EC50 ([10]; Influenza A virus, H5N1, MDCK, Influenza A H5N1 A/Hong Kong/213/2003, Drug Assay Neutral Red): 3.6 µM | EC50 ([10]; Influenza A virus, H5N1, MDCK, Influenza A H5N1 Hong Kong/213/2003, Neutral Red): 39 µM | EC50 (H3N2 Perth/16/2009 [11]; [17]): 10 to 25 µM | EC50 [12]: 14.6 µM | EC90 [12]: > 100 µM | EC50 (H5N1 A/Duck/MN/1525/81): 5.6 µM | EC50 (H5N1 A/Duck/MN/1525/81; Influenza A virus, H5N1, MDCK): 9.6 µM | EC50 [13]: 4.8 µM | EC50 [14]: 2.81 µM | EC90 [14]: 11.8 µM | EC50 (H7N9 A/Anhui/1/2013; Influenza A virus, H7N9, MDCK, Influenza A H7H9 A/Anhui/1/2013, Neutral Red): 18 µM | EC50 (H7N9 A/Anhui/1/2013; Influenza A virus, H7N9, MDCK, Influenza A H7N9 A/Anhui/1/2013, Drug Assay Neutral Red): 3 µM

CCCC[C@H](NC(C)=O)C(=O)N[C@@H](CC(=O)O)C(=O)N[C@H](C(=O)N[C@@H](CC(N)=O)C(=O)N[C@]1(C)CCCCCCC=CCCC[C@@](C)(C(=O)N[C@@H](C)C(=O)N[C@@H](C)C(=O)N[C@@H](CCC(N)=O)C(N)=O)NC(=O)[C@H](C)NC(=O)[C@H](CC(C)C)NC(=O)[C@H](Cc2ccccc2)NC(=O)[C@H](CC(C)C)NC(=O)[C@H](CC(C)C)NC(=O)[C@H]([C@@H](C)O)NC1=O)C(C)C [SP-18] (Ac-[Nle]DVN[R8]TLLFLA[S5]AAQ-NH2; staple 5-12)
EC50 (H3N2 Perth/16/2009 [2]; Cytopathic effect/toxicity (Visual), MDCK cells, read-out: EC50 (μM) H3N2 Perth/16/2009): 25 to 50 µM | EC50 (H3N2 Perth/16/2009 [2]; Influenza A H3N2 Perth/16/2006 (so in the source), Drug Assay Visual, read-out: EC50): 14 µM | CC50 (in vitro; CC50): > 50 µM | CC50 (in vitro; CC50 (μM) H1N1 California/07/2009, Cell cytotoxicity (CC), run with H1N1 California/07/2009): > 100 µM | CC50 (in vitro; CC50 (μM) H3N2 Perth/16/2009, Cell cytotoxicity (CC), run with H3N2 Perth/16/2009): > 100 µM | CC50 (in vitro; CC50, MDCK cells, run with Influenza A H1N1 California/07/2009, Neutral Red): > 100 µM | CC50 (in vitro; CC50, MDCK cells, run with Influenza A H1N1 California/07/2009, VYR/Neutral Red): > 100 µM | CC50 (in vitro; CC50, MDCK cells, run with Influenza A H1N1 California/07/2009, Visual): > 100 µM | CC50 (in vitro; CC50, MDCK cells, run with Influenza A H3N2 Perth/16/2009, Neutral Red): > 100 µM | CC50 (in vitro; CC50, MDCK cells, run with Influenza A H3N2 Perth/16/2009, VYR/Neutral Red): > 100 µM | CC50 (in vitro; CC50, run with Influenza A H1N1 A/Solomon Is./3/2006-M, Neutral Red): > 100 µM | CC50 (in vitro; CC50, run with Influenza A H1N1 A/Solomon Is./3/2006-M, Visual): > 100 µM | CC50 (in vitro; CC50, run with Influenza A H1N1 California/07/20/09 (so in the source), later run, Neutral Red): > 100 µM | CC50 (in vitro; CC50, run with Influenza A H1N1 California/07/20/09 (so in the source), Visual/Neutral Red): > 100 µM | CC50 (in vitro; CC50, run with Influenza A H1N1 California/07/2009, Neutral Red): > 100 µM | CC50 (in vitro; CC50, run with Influenza A H3N2 Perth/16/2006 (so in the source), Neutral Red): > 100 µM | CC50 (in vitro; CC50, run with Influenza A H3N2 Perth/16/2006 (so in the source), Visual): > 100 µM | CC50 (in vitro; CC50, run with Influenza A H3N2 Perth/16/2009, last run, Neutral Red): > 100 µM | CC50 (in vitro; CC50, run with Influenza A H3N2 Perth/16/2009, Visual/Neutral Red): > 100 µM | EC50 (H1N1 California/07/2009 [5]; Cytopathic effect/toxicity (Neutral red), MDCK cells, read-out: EC50 (μM) H1N1 California/07/2009): 1.5 to 10 µM | EC50 (H1N1 California/07/2009 [5]; Influenza A H1N1 California/07/20/09 (so in the source), later run, Drug Assay Neutral Red, read-out: EC50): 7 µM | EC90 (H1N1 California/07/2009 [5]; Influenza A H1N1 California/07/20/09 (so in the source), Drug Assay Visual/Neutral Red): 4 µM | EC50 (H1N1 California/07/2009 [5]; Influenza A H1N1 California/07/2009, Drug Assay Neutral Red, read-out: EC50): 3.8 µM | EC90 ([15]; Influenza A H1N1 California/07/2009): 6.4 µM | EC90 ([15]; Influenza A H3N2 Perth/16/2009): > 100 µM | EC50 ([6]; Influenza A H1N1 A/Solomon Is./3/2006-M, Drug Assay Visual, read-out: EC50): 13 µM | EC50 ([6]; read-out: EC50): > 50 µM | EC50 (H1N1 California/07/2009 [7]; Cytopathic effect/toxicity (Visual), MDCK cells): 1.5 to 10 µM | EC50 ([10]; read-out: EC50): > 50 µM | EC50 (H3N2 Perth/16/2009 [11]; Cytopathic effect/toxicity (Neutral red), MDCK cells, read-out: EC50 (μM) H3N2 Perth/16/2009): 25 to 50 µM | EC50 (H3N2 Perth/16/2009 [11]; Influenza A H3N2 Perth/16/2006 (so in the source), Drug Assay Neutral Red, read-out: EC50): 22 µM | EC50 (H3N2 Perth/16/2009 [11]; Influenza A H3N2 Perth/16/2009, last run, Drug Assay Neutral Red, read-out: EC50): > 100 µM | EC90 (H3N2 Perth/16/2009 [11]; Influenza A H3N2 Perth/16/2009, Drug Assay Visual/Neutral Red): > 100 µM | EC50 (H3N2 Perth/16/2009 [11]; Influenza A H3N2 Perth/16/2009, Neutral Red, read-out: EC50): 33 µM | EC50 [16]: 29 µM | EC50 (H7N9 A/Anhui/1/2013; read-out: EC50): > 50 µM
